One experiment concerns the target KRas G12C (Homo sapiens, UniProt P01116, C118S/C51S/C80L/G12C). Put plainly: KRas G12C Modification Assay (LCMS detection of covalent adduct). It is filed as binding. As to conditions: 5 μM compound, 3 hours. How it is done:
A 10 μL aliquot of each protein solution was then transferred to a 384 well microtiter plate. Initial compound stocks were generated at fifty times their desired final assay concentration in DMSO.
Exemplary compounds of Formula (I) were diluted 25-fold into K-Ras Assay Buffer to a final of two times their final concentration. A 10 μL aliquot of each diluted compound solution was then added to each of the protein solutions in the microtiter plate to initiate reaction. […] At each time point, the reactions were quenched with 20 μL of a 25 mM acetic acid solution. […] Once all reactions were quenched, the plates were heat sealed and the samples were injected into a LC/MS system for data acquisition.
Samples were injected in their liquid phase onto a C-3 reverse phase column to remove assay buffer and prepare the samples for mass spectrometer. The proteins were eluted from the column using an acetonitrile gradient and fed directly into the mass analyzer. Initial raw data analysis took place in Agilent MassHunter software immediately post data acquisition.
Raw data analysis of the intact protein was exclusively a deconvolution of the multiple charge states of each protein in solution using a maximum entropy deconvolution provided in Mass Hunter. To minimize complexity, only the data over limited mass ranges were considered for analysis, with a minimum of one Dalton mass step intervals. The heights of all masses identified during raw data analysis were exported to be further analyzed in Spotfire® data analysis software.
Final data analysis was a multistep process in the Spotfire® data analysis software package. Briefly, each protein mass was calculated as a percent of the total signal of that sample, that percentage was then normalized to the percentage of signal of the protein in the absence of reactive compounds. Those normalized signals were reported as normalized percent of control (POC). […] Key: “A”≤25% POC; “B”>25% POC≤50% POC; “C”>50% POC and ND=not determined.

In experiment [1] the test system is Phospho-ERK in NCI-H358 cells expressing KRas G12C. As to the kind of experiment: Cellular inhibition of KRas G12C by Phospho-ERK measurement in NCI-H358 cells. It is filed as cell-based. The settings on record: Homo sapiens; NCI-H358 cells, 3 hours compound treatment; read-out: IC50 (pERK(Thr202/Tyr204) normalized with GAPDH). An outline of the steps:
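After 8–12 h attachment, NCI-H358 cells were treated with compounds for 3 h (0.5% DMSO final), fixed, methanol-permeabilized and immunostained. pERK(Thr202/Tyr204) was read by infrared imaging and normalized to GAPDH as percent of DMSO control. IC50 came from a 4-parameter fit.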

For `C=CC(=O)N1CCN(c2nc(OC[C@@H]3CCCN3C)nc3c2CCN(c2c(C)ccc4[nH]ncc24)C3)CC1CC#N` (stereo partly drawn) [Example 148, 2-[4-[7-(5-methyl-1H-indazol-4-yl)-2-[[(2S)-1-methylpyrrolidin-2-yl]methoxy]-6,8-dihydro-5H-pyrido[3,4-d]pyrimidin-4-yl]-1-prop-2-enoyl-piperazin-2-yl]acetonitrile], the “POC (normalized percent of control, KRas G12C modification)” value on KRas G12C is “C (“C”>50% POC)”. The IC50 in experiment [1] is 1 to 1000 nM.
The corresponding values for `C=CC(=O)N1CCN(c2nc(OC[C@@H]3CCCN3C)nc3c2CCN(c2c(C(F)(F)F)ccc4[nH]ncc24)C3)CC1CC#N` (stereo partly drawn) [Example 149, 2-[4-[2-[[(2S)-1-methylpyrrolidin-2-yl]methoxy]-7-[5-(trifluoromethyl)-1H-indazol-4-yl]-6,8-dihydro-5H-pyrido[3,4-d]pyrimidin-4-yl]-1-prop-2-enoyl-piperazin-2-yl]acetonitrile] are “B (“B”>25% POC≤50% POC)” and 1 to 1000 nM.

Values taken from patent US11267812B2 (Mirati Therapeutics, Inc., priority 2016, dated 2022).
